Measured values reported in patent US20240308987A1, “SMALL MOLECULE INHIBITOR AGAINST NASOPHARYNGEAL CARCINOMA, PREPARATION METHOD AND APPLICATION THEREOF” (SHENZHEN BAY LABORATORY, priority 2021, published 2024).

Tested on: C666-1 cells
Test: C666-1 Cell Viability Assay (Resazurin cytotoxicity test)
Format: cell-based
Conditions: Homo sapiens, C6661, EB virus-positive C666-1 cells, 72 hours treatment, 100-0.78 micromole/L, read-out: Inhibitory Rate
Summary of the method: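 EBV-positive nasopharyngeal carcinoma C666-1 cells, 5×10^3 per well, were grown 24 h, then exposed to compound for 72 h at 37 °C (8-point two-fold dilutions, final 100–0.78 µM). Viability was read by resazurin reduction fluorescence after 3 h; EC50 came from the fitted inhibition curve.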

| Structure (SMILES) | EC50 [µM] |
| --- | --- |
| COC(=O)c1cccc(N2CC(Oc3ccc(COc4cnc5ccccc5c4)cc3)C2)c1-n1cccc1 [Example 9, methyl 2-(1H-pyrrol-1-yl)-3-(3-(4-((quinolin-3-yloxy)methyl)phenoxy)azetidin-1-yl) benzoate] | > 50 |
| O=C(Cc1ccc(OC2CN(c3cccc(C(=O)O)c3)C2)cc1)Nc1cccnc1 [Example 43a, 3-(3-(4-(2-oxo-2-(pyridin-3-ylamino)ethyl)phenoxy)azetidin-1-yl) benzoic acid] | 1 to 10 |
| O=C(Nc1ccc(OC2CN(c3cccc(C(=O)O)c3-n3cccc3)C2)cc1)Nc1cccc(C(F)(F)F)c1 [Example 10a, 2-(1H-pyrol-1-yl)-3-(3-(4-(3-(3-(trifluoromethyl)phenyl)ureido)phenoxy)azetidin-1-yl) benzoic acid] | 10 to 50 |
| O=C(O)c1cccc(N2CC(Oc3ccc(Oc4cccnc4)cc3)C2)c1-n1cccc1 [Example 25a, 3-(3-(4-(pyridin-3-yloxy)phenoxy)azetidin-1-yl)-2-(1H-pyrrol-1-yl) benzoic acid] | > 50 |
| COC(=O)c1cccc(N2CC(Oc3ccc(CC(=O)Nc4cccnc4)cc3)C2)c1-c1ccc2cc[nH]c2c1 [Example 44, methyl 2-(1H-indol-6-yl)-3-(3-(4-(2-oxo-2-(pyridin-3-ylamino)ethyl)phenoxy)azetidin-1-yl) benzoate] | < 1 |
| Cc1c(C(=O)O)cccc1N1CC(Oc2ccc(NC(=O)Cc3cccnc3)cc2)C1 [Example 53a, 2-methyl-3-(3-(4-(2-(pyridin-3-yl)acetamido)phenoxy)azetidin-1-yl) benzoic acid] | 10 to 50 |
| O=C(O)c1cccc(N2CC(Oc3ccc(COc4cccnc4)c(F)c3)C2)c1-n1cccc1 [Example 20a, 3-(3-(3-fluoro-4-((pyridin-3-yloxy)methyl)phenoxy)azetidin-1-yl)-2-(1H-pyrrol-1-yl) benzoic acid] | 10 to 50 |
| Cc1cc(COc2cccnc2)ccc1OC1CN(c2cccc(C(=O)O)c2-n2cccc2)C1 [Example 16a, 3-(3-(2-methyl-4-((pyridin-3-yloxy)methyl)phenoxy)azetidin-1-yl)-2-(1H-pyrrol-1-yl) benzoic acid] | > 50 |
| O=C(O)c1cccc(N2CC(Oc3ccc(COc4cccnc4)cc3)C2)c1-n1cccc1 [Example 1a, 3-(3-(4-((pyridin-3-yloxy)methyl)phenoxy)azetidin-1-yl)-2-(1H-pyrrol-1-yl) benzoic acid] | 1 to 10 |
| O=C(Cc1cccnc1)Nc1ccc(OC2CN(c3cccc(C(=O)O)c3-c3cccc(Cl)c3)C2)cc1 [Example 48a, 3′-chloro-6-(3-(4-(2-(pyridin-3-yl)acetamido)phenoxy)azetidin-1-yl)-[1,1′-biphenyl]-2-carboxylic acid] | 10 to 50 |
| COC(=O)c1cccc(N2CC(Oc3ccc(COc4cncc(C)c4)cc3)C2)c1-n1cccc1 [Example 3, methyl 3-(3-(4-((5-methylpyridin-3-yloxy)methyl)phenoxy)azetidin-1-yl)-2-(1H-pyrrol-1-yl) benzoate] | > 50 |
| O=C(Nc1ccc(OC2CN(c3cccc(C(=O)NO)c3-n3cccc3)C2)cc1)Nc1cccc(C(F)(F)F)c1 [Example 10b, N-hydroxy-2-(1H-pyrrol-1-yl)-3-(3-(4-(3-(3-(trifluoromethyl)phenyl)ureido)phenoxy)azetidin-1-yl) benzamide] | 1 to 10 |
| O=C(Cc1cccnc1)Nc1ccc(OC2CN(c3cccc(C(=O)O)c3)C2)cc1 [Example 49a, 3-(3-(4-(2-(pyridin-3-yl)acetamido)phenoxy)azetidin-1-yl) benzoic acid] | 10 to 50 |
| COC(=O)c1cccc(C#Cc2ccc(NC(=O)Nc3cccnc3)cc2)c1-c1cccc(OCCO)c1 [Example 57, methyl 3′-(2-hydroxyethoxy)-6-((4-(3-(pyridin-3-yl)ureido)phenyl)ethynyl)-[1,1′-biphenyl]-2-carboxylate] | 1 to 10 |
| O=C(Cc1cccnc1)Nc1ccc(OC2CN(c3cccc(C(=O)O)c3-c3ccccc3)C2)cc1 [Example 45a, 6-(3-(4-(2-(pyridin-3-yl)acetamido)phenoxy)azetidin-1-yl)-[1,1′-biphenyl]-2-carboxylic acid] | 10 to 50 |
| Cn1ccc(OCc2ccc(OC3CN(c4cccc(C(=O)O)c4-n4cccc4)C3)cc2)n1 [Example 32a, 3-(3-(4-(((1-methyl-1H-pyrazol-3-yl)oxy)methyl)phenoxy)azetidin-1-yl)-2-(1H-pyrrol-1-yl) benzoic acid] | > 50 |
| COC(=O)c1cccc(N2CC(Oc3ccc(COc4ncccn4)cc3)C2)c1-n1cccc1 [Example 11, methyl 3-(3-(4-((pyrimidin-2-yloxy)methyl)phenoxy)azetidin-1-yl)-2-(1H-pyrrol-1-yl) benzoate] | > 50 |

| Structure (SMILES) | EC50 [µM] |
| --- | --- |
| COC(=O)c1cccc(N2CC(Oc3ccc(Oc4ccncc4)cc3)C2)c1-n1cccc1 [Example 26, methyl 3-(3-(4-(pyridin-4-yloxy)phenoxy)azetidin-1-yl)-2-(1H-pyrrol-1 - yl) benzoate] | 1 to 10 |
| COC(=O)c1cccc(N2CC(Oc3ccc(COc4ccncc4)cc3)C2)c1-n1cccc1 [Example 8, methyl 3-(3-(4-((pyridin-4-yloxy)methyl)phenoxy)azetidin-1-yl)-2-(1H-pyrrol-1-yl) benzoate] | 10 to 50 |
| COC(=O)c1cccc(N2CC(Oc3ccc(COc4cccnc4)cc3C)C2)c1-n1cccc1 [Example 16, methyl 3-(3-(2-methyl-4-((pyridin-3-yloxy)methyl)phenoxy)azetidin-1-yl)-2-(1H-pyrrol-1-yl) benzoate] | 10 to 50 |
| COC(=O)c1cccc(N2CC(Oc3ccc(NC(=O)Nc4cccc(C(F)(F)F)c4)cc3)C2)c1-c1cccc(Cl)c1 [Example 37, methyl 3′-chloro-6-(3-(4-(3-(3-(trifluoromethyl)phenyl)ureido)phenoxy)azetidin-1-yl)-[1,1′-biphenyl]-2-carboxylate] | 10 to 50 |
| COC(=O)c1cccc(N2CC(Oc3ccc(NC(=O)Cc4cccnc4)cc3)C2)c1Cl [Example 55, methyl 2-chloro-3-(3-(4-(2-(pyridin-3-yl)acetamido)phenoxy)azetidin-1-yl) benzoate] | 1 to 10 |
| COC(=O)c1cccc(N2CC(Oc3ccc(COc4cncc(OC)c4)cc3)C2)c1-n1cccc1 [Example 6, methyl 3-(3-(4-(((5-methoxypyridin-3-yl)oxy)methyl)phenoxy)azetidin-1-yl)-2-(1H-pyrrol-1-yl) benzoate] | > 50 |
| O=C(O)c1cccc(N2CC(Oc3ccc(CCc4cccnc4)cc3)C2)c1-n1cccc1 [Example 29a, 3-(3-(4-(2-(pyridin-3-yl)ethyl)phenoxy)azetidin-1-yl)-2-(1H-pyrrol-1-yl) benzoic acid] | > 50 |
| COC(=O)c1cccc(N2CC(Oc3ccc(NC(=O)Cc4cccnc4)c(F)c3)C2)c1-n1cccc1 [Example 52, methyl 3-(3-(3-fluoro-4-(2-(pyridin-3-yl)acetamido)phenoxy)azetidin-1-yl)-2-(1H-pyrrol-1-yl) benzoate] | < 1 |
| COC(=O)c1cccc(N2CC(Oc3ccc(NC(=O)c4cccnc4)cc3)C2)c1-n1cccc1 [Example 31, methyl 3-(3-(4-(nicotinamido)phenoxy)azetidin-1-yl)-2-(1H-pyrrol-1-yl) benzoate] | 10 to 50 |
| COC(=O)c1cccc(C#Cc2ccc(NC(=O)Cc3cccnc3)cc2)c1-c1ccccc1 [Example 62, methyl 6-((4-(2-(pyridin-3-yl)acetamido)phenyl)ethynyl)-[1,1′-biphenyl]-2-carboxylate] | < 1 |
| O=C(Cc1ccc(OC2CN(c3cccc(C(=O)O)c3-c3ccc4cc[nH]c4c3)C2)cc1)Nc1cccnc1 [Example 44a, 2-(1H-indol-6-yl)-3-(3-(4-(2-oxo-2-(pyridin-3-ylamino)ethyl)phenoxy)azetidin-1-yl) benzoic acid] | 1 to 10 |
| COC(=O)c1cccc(N2CC(Oc3ccc(COc4cccnc4)c(C)c3)C2)c1-n1cccc1 [Example 15, methyl 3-(3-(3-methyl-4-((pyridin-3-yloxy)methyl)phenoxy)azetidin-1-yl)-2-(1H-pyrrol-1-yl) benzoate] | 10 to 50 |
| COC(=O)c1cccc(C#Cc2ccc(CC(=O)Nc3cccnc3)cc2)c1-c1ccccc1 [Example 60, methyl 6-((4-(2-oxo-2-(pyridin-3-ylamino)ethyl)phenyl)ethynyl)-[1,1′-biphenyl]-2-carboxylate] | < 1 |
| COC(=O)c1cccc(N2CC(Oc3ccc(COc4ccsn4)cc3)C2)c1-n1cccc1 [Example 33, methyl 3-(3-(4-((isothiazol-3-yloxy)methyl)phenoxy)azetidin-1-yl)-2-(1H-pyrrol-1-yl) benzoate] | > 50 |
| O=C(NO)c1cccc(N2CC(Oc3ccc(COc4cccnc4)cc3)C2)c1-n1cccc1 [Example 1c, N-hydroxy-3-(3-(4-((pyridin-3-yloxy)methyl)phenoxy)azetidin-1-yl)-2-(1H-pyrrole-1-yl) benzamide] | < 1 |
| COC(=O)c1cccc(N2CC(Oc3ccc(COc4cccnc4)c(F)c3)C2)c1-n1cccc1 [Example 20, methyl 3-(3-(3-fluoro-4-((pyridin-3-yloxy)methyl)phenoxy)azetidin-1-yl)-2-(1H-pyrrol-1-yl) benzoate] | 1 to 10 |
| COC(=O)c1cccc(N2CC(Oc3ccc(COc4ccc(OC)nc4)cc3)C2)c1-n1cccc1 [Example 4, methyl 3-(3-(4-(((6-methoxypyridin-3-yl)oxy)methyl)phenoxy)azetidin-1-yl)-2-(1H-pyrrol-1-yl) benzoate] | > 50 |
